Assays:
B16F10 cells [1] = test: HA production and HA staining by B16F10 melanoma cells (HA ELISA, HABP staining); type: cell-based, murine; conditions: for HA production (HA synthesis inhibition) by B16F10 cells: 48 hours of drug exposure, 30, 100, 300 μM, HA ELISA; for HA staining of B16F10 cells with HA binding protein (HABP): fluorescent staining
Method: To test this, murine melanoma cells (B16F10), a cell line known to produce abundant HA, were used. […] FIGS. 4D and 4E show HA production by B16F10 cells cultured for 48 hours in 4-MU (FIG. 1D) or 4-MUG (FIG. 1E). […] Data represent mean±SEM; *, p<0.05 by unpaired t test. Similar findings were seen as well in primary lymphocytes.
B16F10 cells were cultured in DMEM and were treated with different concentrations of 4-MU and 4-MUG (30, 100, 300 μM) for 24 and 48 hours. Cultured cells were lysed and analyzed for HA concentration determination using an HA ELISA. HA staining in B16F10 cells placed in 96 well plates were imaged using fluorescence microscopy. To measure 4-MU florescence intensity in B16F10 cells treated with 4-MU and 4-MUG, B16F10 cells were trypsinized and 4-MU fluorescence associated with the cells was analyzed by flow cytometry in the Pacific Blue channel using a BD™ LSRII flow cytometer. For permeabilization, after trypsinization, cells were incubated in methanol at −20° C. for 20 min and washed once before flow cytometric analysis.
(§1) Samples were thawed and assayed for HA levels using a modified HA ELISA as previously described (Nagy N., et al., J. Clin. Invest. 2015; 125(10):3928-3940). Each sample was analyzed in triplicate with a mean value obtained per sample. For cell normalization, LI-COR CellTag™ 700 Stain was used according to the manufactures protocol.

CTLL2 cells = test: HA synthesis inhibition in CTLL2 lymphoma cells; type: cell-based; conditions: lymphoma cell line
Method: as §1

B16F10 cells [2] = test: 4-MU fluorescence of treated B16F10 cells by flow cytometry, pre- and post-permeabilization; type: in vitro ADME, murine
Method: Fluorescent values of 4-MUG were normalized to the 4-MU fluorescence. Referring to FIG. 2 B, 4-MU or 4-MUG was added to PBS with 10% FCS and the increase of fluorescence signal using a fluorescence plate reader was monitored at intervals up to 72 hours. […] B16F10 cells were cultured in DMEM and were treated with different concentrations of 4-MU and 4-MUG (30, 100, 300 μM) for 24 and 48 hours. Cultured cells were lysed and analyzed for HA concentration determination using an HA ELISA. HA staining in B16F10 cells placed in 96 well plates were imaged using fluorescence microscopy. To measure 4-MU florescence intensity in B16F10 cells treated with 4-MU and 4-MUG, B16F10 cells were trypsinized and 4-MU fluorescence associated with the cells was analyzed by flow cytometry in the Pacific Blue channel using a BD™ LSRII flow cytometer. For permeabilization, after trypsinization, cells were incubated in methanol at −20° C. for 20 min and washed once before flow cytometric analysis.

db/db mice = test: db/db mouse model of type 2 diabetes; type: in vivo; conditions: for body weight of db/db mice: after start of treatment; for intra-peritoneal glucose tolerance testing (IPGTT): fasting db/db mice fed drug for previous 2 weeks; for HA staining in pancreatic islets of db/db mice: mouse, in vivo; for blood glucose (BG) levels in db/db mice: over one month, 4-MU chow or 4-MUG in drinking water vs control chow
From the text: All animals were bred and maintained under specific pathogen-free conditions, with free access to food and water, in the animal facilities at Stanford University Medical School (Stanford, Calif.). B6 db/db LeptR−/− mice were purchased from Jackson Laboratories (JAX) as well as DO11.10 transgenic mice. The DO11.10 mice were bred with Balb/c mice expressing RIPmOva (ovalbumin peptide amino acids 323-339; available at the Benaroya Research Institute) to generate the DORmO double-transgenic mice. In addition, C57Bl/6J mice were bred in-house at Stanford University School of Medicine.
Beginning at four weeks of age, mice were weighed weekly as well as bled via the tail vein for the determination of their blood glucose level using a Contour® blood glucose meter and blood glucose monitoring strips (Bayer Healthcare). When two consecutive blood glucose readings of 250 mg/dL were recorded, animals were considered diabetic. When two consecutive blood glucose readings of 300 mg/dL were recorded, animals were euthanized.
The 4-MU (Alfa Aesar) was pressed into mouse chow (TestDiet, St. Louis, Mo.) and irradiated before shipment, as previously described (Nagy N., et al., Circulation. 2010; 122(22):2313-2322). This chow formulation delivers 250 mg/mouse/day, yielding a serum drug concentration of 640.3±17.2 nmol/L in mice, as measured by HPLC-MS. 4-MUG (ChemImpex, Wood Dale, Ill.) was distributed in the drinking water at a concentration of 2 mg/ml, delivering 10 mg/mouse/day, yielding a serum drug concentration of 357.1±72.6 ng/mL in mice, as measured by LC-MS/MS. Mice were initiated on 4-MU and 4-MUG at five, eight or twelve weeks of age, unless otherwise noted, and were maintained on this diet until they were euthanized, unless otherwise noted. For analysis of Foxp3+ regulatory T-cell numbers in naïve mice, mice were treated daily with 0.5 mg of 4-MU or 1.0 mg 4-MUG in 200 μl 0.08% carboxymethylcellulose in saline by intra-peritoneal injection.
To assess whether 4-MUG is effective against HA synthesis in a different inflammatory disease that is non-autoimmune in nature, the role of 4-MUG in the db/db model of type 2 diabetes was investigated. db/db mice lack a functional leptin receptor and are obese and diabetic.
Referring to FIG. 7D, the beneficial effect of 4-MU and 4-MUG on glycemic control was maintained for at least 10 weeks, indicating a lasting improvement. FIGS. 7F and 7G show intra-peritoneal glucose tolerance testing (IPGTT) of fasting db/db mice fed 4-MU or 4-MUG for 2 weeks.

[3] = cited from earlier work

Row | SMILES | HA production (HA synthesis inhibition) by B16F10 cells (B16F10 cells [1]) | HA staining of B16F10 cells with HA binding protein (HABP) (B16F10 cells [1]) | HA synthesis inhibition in CTLL2 cells (CTLL2 cells) | fluorescence of treated B16F10 cells upon permeabilization (B16F10 cells [2]) | body weight of db/db mice (db/db mice) | intra-peritoneal glucose tolerance testing (IPGTT) (db/db mice) | HA staining in pancreatic islets of db/db mice (db/db mice) | blood glucose (BG) levels in db/db mice (db/db mice) | half-life ([3]; in mice) | time after which treated B16F10 cells became fluorescent (B16F10 cells [2]; incubated 24, 48 or 72 hours, flow cytometry) | concentration of 4-MUG relative to parent molecule 4-MU ([3]; animal studies) | median plasma concentration of 4-MUG relative to 4-MU ([3]; mouse models)
1 | Cc1cc(=O)oc2cc(O)ccc12 [4-MU, 4-methylumbelliferone] | concentration dependent inhibition of HA synthesis | reduced HA | HA synthesis inhibition | lost upon permeabilization | initial decrease in weight | improvement in glycemic control | reduced HA staining | reliably decreased blood glucose | 3 min | – | – | –
2 | Cc1cc(=O)oc2cc(O[C@@H]3O[C@H](C(=O)O)[C@@H](O)[C@H](O)[C@H]3O)ccc12 [4-MUG, 4-methylumbelliferone-glucuronide] | concentration dependent inhibition of HA synthesis | reduced HA | inhibited HA synthesis | – | soon recovered | improvement in glycemic control | reduced HA staining | reliably decreased blood glucose | – | 48 to 72 h | 300 fold | more than 3,000 fold
